Biological target: EGFR L858R (Homo sapiens, UniProt P00533, L858R)
Test: KINOMEscan scanMAX, EGFR-L858R
Assay type: binding
Set-up: purchased Eurofins DiscoverX KINOMEscan scanMAX; host or cells: E. coli BL21-derived (T7 phage) or HEK-293
Details: 100 nM
Description: Kinome-wide binding selectivity of CFT8919 was assessed via the KINOMEscan scanMAX assay at Eurofins DiscoverX (Freemont, CA, USA). Compound was tested at 100 nM against a diverse panel of 468 kinases. The size of circles was mapped onto the kinase phylogenetic tree utilizing DiscoverX TREEspot using <50% of % control as a cutoff.
For most assays, kinase-tagged T7 phage strains were grown in parallel in 24-well blocks in an E. coli host derived from the BL21 strain. E. coli were grown to log-phase and infected with T7 phage from a frozen stock (multiplicity of infection=0.4) and incubated with shaking at 32° C. until lysis (90-150 minutes). The lysates were centrifuged (6,000×g) and filtered (0.2 μm) to remove cell debris. The remaining kinases were produced in HEK-293 cells and subsequently tagged with DNA for qPCR detection. Streptavidin-coated magnetic beads were treated with biotinylated small molecule ligands for 30 minutes at room temperature to generate affinity resins for kinase assays. The liganded beads were blocked with excess biotin and washed with blocking buffer (SeaBlock (Pierce), 1% BSA, 0.05% Tween 20, 1 mM DTT) to remove unbound ligand and to reduce non-specific phage binding. […] Test compounds were prepared as 40× stocks in 100% DMSO and directly diluted into the assay. […] The kinase concentration in the eluates was measured by qPCR.

EGFR L858R, sequence (P00533 25-1210 L858R): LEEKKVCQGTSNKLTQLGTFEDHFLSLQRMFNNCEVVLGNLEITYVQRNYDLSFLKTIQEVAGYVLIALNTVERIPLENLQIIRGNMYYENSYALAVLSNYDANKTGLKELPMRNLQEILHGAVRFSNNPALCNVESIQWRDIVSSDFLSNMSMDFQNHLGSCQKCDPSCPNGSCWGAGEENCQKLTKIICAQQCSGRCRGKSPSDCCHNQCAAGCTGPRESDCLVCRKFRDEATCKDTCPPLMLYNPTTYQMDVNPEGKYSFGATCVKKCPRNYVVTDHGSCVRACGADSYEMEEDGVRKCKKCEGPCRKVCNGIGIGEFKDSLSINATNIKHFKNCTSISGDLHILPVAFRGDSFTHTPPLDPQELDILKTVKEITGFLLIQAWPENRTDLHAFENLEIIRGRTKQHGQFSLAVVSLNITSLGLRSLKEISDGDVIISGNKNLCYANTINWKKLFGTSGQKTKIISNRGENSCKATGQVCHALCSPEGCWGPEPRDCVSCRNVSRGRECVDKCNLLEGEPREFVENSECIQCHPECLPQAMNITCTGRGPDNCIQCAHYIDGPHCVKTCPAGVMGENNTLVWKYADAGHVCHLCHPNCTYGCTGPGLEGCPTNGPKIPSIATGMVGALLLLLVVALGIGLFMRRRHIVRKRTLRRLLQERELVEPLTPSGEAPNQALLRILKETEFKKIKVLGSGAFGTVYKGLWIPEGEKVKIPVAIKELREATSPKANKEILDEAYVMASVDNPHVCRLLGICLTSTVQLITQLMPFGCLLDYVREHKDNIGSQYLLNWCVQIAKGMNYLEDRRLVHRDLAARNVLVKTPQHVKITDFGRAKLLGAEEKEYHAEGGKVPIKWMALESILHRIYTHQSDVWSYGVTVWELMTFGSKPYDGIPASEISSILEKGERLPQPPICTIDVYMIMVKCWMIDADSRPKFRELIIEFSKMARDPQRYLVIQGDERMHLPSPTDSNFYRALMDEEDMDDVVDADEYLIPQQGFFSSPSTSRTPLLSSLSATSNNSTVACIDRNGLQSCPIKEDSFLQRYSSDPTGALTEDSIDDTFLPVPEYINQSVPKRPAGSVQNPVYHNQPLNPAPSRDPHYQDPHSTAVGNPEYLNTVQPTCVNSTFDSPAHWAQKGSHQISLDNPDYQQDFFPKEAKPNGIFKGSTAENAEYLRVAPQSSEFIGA

Which percent binding remaining does the source give for `O=C1CC[C@H](Nc2ccc(N3CCC(O)(CC(=O)N4CC5(C4)CN(c4ccc(-c6cc(F)c7c(c6)C(=O)N(C(C(=O)Nc6nccs6)c6ncn8c6CCC8)C7)cc4)C5)CC3)c(F)c2)C(=O)N1` (stereo partly drawn) [Compound 1, 2-(6,7-dihydro-5H-pyrrolo[1,2-c]imidazol-1-yl)-2-[6-[4-[2-[2-[1-[4-[[(3S)-2,6-dioxo-3-piperidyl]amino]-2-fluoro-phenyl]-4-hydroxy-4-piperidyl]acetyl]-2,6-diazaspiro[3.3]heptan-6-yl]phenyl]-4-fluoro-1-oxo-isoindolin-2-yl]-N-thiazol-2-yl-acetamide] here?
Its percent binding remaining is less than 50%.

— patent US20240158418A1 (C4 Therapeutics, Inc., priority 2021, published 2024)
